Experiments:
5HT4 receptor = target: T1, 5HT4 receptor (Cavia porcellus, UniProt O70528); assay: Electrically stimulated guinea-pig ileum longitudinal muscle-myenteric plexus strips (titled in vitro binding affinity for the 5HT4 receptor); assay type: cell-based; conditions: submaximal electrical stimulation
T1 construct: The longitudinal muscle layer with myenteric plexus was removed; from tissue; host or cells: guinea-pig ileum longitudinal muscle with myenteric plexus
Source text: Dunkin-Hartley guinea-pigs of either sex (weighing between 600-900 g) were killed by decapitation. The ileum was removed and cleansed with warmed and oxygenated Krebs-Henseleit solution. Parts of the ileum (15 cm) were slipped over a glass pipette. The longitudinal muscle layer with myenteric plexus was removed by means of a cotton thread moistened with Krebs solution. Strips with a length of 8 cm were folded and these strips (4 cm) were mounted between two platinum electrodes (8 cm length, 0.5 cm apart). […] The preparations were excited with single rectangular stimuli [1 ms; 0.1 Hz; submaximal response (current leading to 80% of maximal response), from a programmable stimulator (Janssen Scientific Instruments Division)]. Contractions were measured isometrically (Statham UC2, Janssen Scientific Instruments amplifier, Kipp BD-9 pen-recorder). During the stabilization period of 30 minutes, the strips were repeatedly stretched, in order to obtain a steady state tension of 1.5 g. Before starting the electrical stimulation, a cumulative concentration response curve of acetylcholine (3.10^−9, 10^−8, 3.10^−8 and 10^−7 M) was given. The bath fluid was replaced with fresh Krebs solution and the strips were allowed to stabilize for another 30 minutes. Subsequently, the strips were stimulated electrically (power stimulator) at a frequency of 0.1 Hz for 1 ms. […]

dogs = assay: Measurement of onset of liquid stool in dogs challenged with KleanPrep; assay type: in vivo, dog; conditions: for ED50: Canis lupus familiaris, read-out: ED50 for liquid stools within 6 hours after administration of KleanPrep
Experimental: Measurement of Onset of Liquid Stool
The dogs were orally or subcutaneously pretreated with test compounds or distilled water (0.5 ml/kg) and 1 hour later challenged by gavage with KleanPrep™ (standard volume: 2×200 ml at a 15 minutes interval). The time interval at which the first liquid stool occurred was noted (in minutes after the first administration of KleanPrep™) up to 6 hours after challenge.
The KleanPrep™ preparation consisted of polyethyleneglycol 3350 (59.000 g/l), sodium sulphate (5.685 g/l), sodium hydrogencarbonate (1.685 g/l), sodium chloride (1.465 g/l), potassium chloride (0.7425 g/l), aspartate (0.0494 g/l) and vanilla (0.3291 g/l).
In a pilot study on five dogs, large volumes of KleanPrep™ (1400, 1400, 1800, 2800, 2800 ml) and relatively long time intervals (95, 101, 124, 211 and 305 minutes after KleanPrep™) were required to obtain liquid stools within an observation period of 6 hours. In the present experiments, a standard volume of 400 ml KleanPrep™ solution (2×200 ml at a 15 minutes interval) was used. Under these conditions, liquid stools were not observed up to 6 hours after KleanPrep™, neither in 40 control dogs pretreated with a single dose of distilled water (0.5 ml/kg, p.o., −1 hour), nor in 35 control dogs pretreated with two doses of distilled water (0.5 ml/kg, p.o., −1 hour) immediately after each other, nor in 10 dogs pretreated with a dose of distilled water (0.5 ml/kg, p.o., −1 hour) and a dose of saline (0.5 ml/kg, s.c., −1 hour), nor in 5 dogs treated with two doses of distilled water (0.5 ml/kg, p.o., −1 hour) and a dose of saline (0.5 ml/kg, s.c., −1 hour).

[1] = dogs pretreated with Compound A 0.01 mg/kg, 5HT4 agonist co-administered, + KleanPrep
[2] = dogs pretreated with Compound A 0.01 mg/kg, 5HT4 agonist co-administered, + KleanPrep, shortest median reached (down to)
[3] = dogs, 5HT4 agonist alone 1 h before KleanPrep 2×200 ml
[4] = of 35 dogs, Compound A 0.01 mg/kg p.o. + distilled water, 1 h before KleanPrep

T1 sequence (O70528 whole entry): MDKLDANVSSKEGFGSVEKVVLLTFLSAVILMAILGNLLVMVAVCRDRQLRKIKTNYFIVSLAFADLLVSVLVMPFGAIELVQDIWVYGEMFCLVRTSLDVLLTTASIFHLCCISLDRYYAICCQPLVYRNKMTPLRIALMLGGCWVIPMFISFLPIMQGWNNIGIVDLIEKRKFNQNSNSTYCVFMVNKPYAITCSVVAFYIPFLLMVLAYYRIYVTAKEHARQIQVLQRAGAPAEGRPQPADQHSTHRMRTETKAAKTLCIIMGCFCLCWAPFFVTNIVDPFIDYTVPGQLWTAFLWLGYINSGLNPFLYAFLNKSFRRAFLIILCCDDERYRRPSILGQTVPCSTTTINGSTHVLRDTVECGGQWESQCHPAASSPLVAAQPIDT

| SMILES | EC50 (5HT4 receptor) [nM] | ED50 for liquid stools within 1 hour (dogs; [1]) [mg/kg] | median onset of the first liquid stool after administration of KleanPrep (dogs; [2]) [min] | dose up to which liquid stools were not induced over the 6 hour observation period (dogs; [3]) [mg/kg] | ED50 (dogs; [3]) [mg/kg] | dose up to which liquid stools within 1 hour were not obtained (dogs; [3]) [mg/kg] | median onset of the first liquid stool after administration of KleanPrep (dogs; dogs, Compound A 0.01 mg/kg p.o. + KleanPrep, no 5HT4 agonist (control)) [min] | number of dogs displaying liquid stools within 1 hour (dogs; [4]) | number of dogs displaying liquid stools within 6 hours (dogs; [4]) |
| --- | --- | --- | --- | --- | --- | --- | --- | --- | --- |
| COCCCN1CC[C@@H](CNC(=O)c2cc(Cl)c(N)c3c2OC(C)(C)C3)[C@H](O)C1 [Compound B, (3S-trans)-4-amino-5-chloro-2,3-dihydro-N-[[3-hydroxy-1-(3-methoxypropyl)-4-piperidinyl]methyl]-2,2-dimethyl-7-benzofuran-carboxamide] | 1.6 | 0.0014 | 29 | > 2.5 | – | – | – | – | – |
| COCCCN1CCC(NC(=O)c2cc(Cl)c(N)c3c2OCC3)CC1 [prucalopride] | – | 0.22 | 32 | – | 2.3 | > 5 | – | – | – |
| COc1cc(N)c(Cl)cc1C(=O)NC1CCN(CCCOc2ccc(F)cc2)CC1OC (centres unmarked) [cisapride] | – | 0.056 | 24 | – | 0.89 | – | – | – | – |
| CO[C@@H]1CN(CCCNc2nccc(=O)[nH]2)CC[C@@H]1NC(=O)c1cc(Cl)c(N)c2c1OC(C)(C)C2 (relative stereo) [Compound A, (−)-cis-4-amino-5-chloro-2,3-dihydro-N-[1-[3-[(3,4-dihydro-4-oxo-2-pyrimidinyl)-amino]propyl]-3-methoxy-4-piperidinyl]-2,2-dimethyl-7-benzofurancarboxamide] | – | – | – | – | – | – | 125 | two | Thirty-three |
